Test results: publication PMC13184981, “Discovery and Development of a Potent LIMK2 Isoform-Specific Degrader” (ACS Chemical Biology, 2026)

Assays:
HEK293T cells = experiment: CellTiter-Glo 2.0 cell viability assay; type: cell-based, human; settings: 24-h treatment, 25 nM to 20 µM
Procedure: The effects of the PROTAC on cell viability were determined using the CellTiter-Glo 2.0 Cell Viability Assay (Promega, G9241) following the manufacturer’s protocol. […] 40 μL of assay reagent was added and incubated for 10 min at RT. Filtered luminescence was measured using a PHERAstar plate reader (BMG Labtech), and data were analyzed using GraphPad Prism 9.

[1] = molecular target: T1, FLAG-tagged CRBN with MOLT-4 cell lysate (Homo sapiens, UniProt P53671+Q96SW2); experiment: PROXICapture pull-down proteomics; type: binding; settings: 5 μM PROTAC
T1 construct: LIMK2: endogenous, MOLT-4 cell lysate
Procedure: Purified FLAG-CRBN was conjugated to FLAG beads (Chromotek, cat. no. ffak) in coimmunoprecipitation buffer (50 mM Tris pH-7.5, 120 mM NaCl, 1% NP40, 0.5 mM EDTA) for 1 h at 4 °C on a rotating shaker, before addition of DMSO or 5 μM THNAN69 for 30 min at 4 °C. Subsequently, ∼ 1 mg of freshly prepared protein lysate from Molt4 cells was added to the prepared beads in IP lysate buffer (50 mM Tris pH-7.5, 120 mM NaCl, 1% NP40, 0.5 mM EDTA, protease inhibitors, phosphatase inhibitors and NEM) for 1 h at 4 °C while rotating. The beads were washed three times with IP buffer and afterward used either for Western blotting or trypsin digestion followed by LC-MS/MS analysis.
Protein-bound flag-CRBN beads were incubated with 20 μL SDC buffer (3% sodium deoxycholate in 50 mM Tris-HCl, pH 8.5) and heated for 5 min at 65 °C, and the supernatant was collected. This step was repeated one more time to get an elute of 40 μL. Further, reduction and alkylation were performed using 5 μL of 5 mM TCEP, 20 mM CAA in 50 mM Tris-HCl, pH 8.5, at 95 °C for 10 min. 500 ng of trypsin in 45 μL 50 mM Tris-HCl (pH 8.5) was added to each sample and kept for digestion at 37 °C overnight. […]
MS raw data were analyzed using FragPipe v21.1, with MSFragger v.4.0 and Philosopher v.5.1.0. […] Label-free quantification was performed using IonQuant v.1.10.27. […]

[2] = Microsomal stability assay; type: in vitro ADME; settings: rat liver microsomes
Procedure: The solubilized test compound (5 μL, final concentration 10 μM) was preincubated at 37 °C in 432 μL of 0.1 M phosphate buffer (pH 7.4) together with 50 μL of an NADPH-regenerating system containing 30 mM glucose-6-phosphate, 4 U/mL glucose-6-phosphate dehydrogenase, 10 mM NADP, and 30 mM MgCl2. After 5 min, the reaction was initiated by adding 13 μL of rat liver microsomes (Sprague–Dawley, Invitrogen; 20 mg mL^–1 protein in 0.1 M phosphate buffer) and incubated in a shaking water bath at 37 °C. The reaction was quenched at 0, 15, 30, and 60 min by adding 500 μL of ice-cold methanol. Samples were centrifuged at 5,000 × g for 5 min at 4 °C, and the supernatants were analyzed by HPLC to quantify the remaining parent compound. HPLC conditions were as follows: mobile phase composed of methanol (40–90%) and water with 0.1% formic acid (10–60%), optimized for the test compound; flow rate 1 mL/min; stationary phase Purospher STAR RP-18 column (5 μm, 125 × 4 mm) with a guard column (5 μm, 4 × 4 mm); detection wavelengths at 254 and 280 nm; injection volume 50 μL. […] Compound concentrations were determined using an external calibration curve. Data are expressed as mean ± SEM of the remaining parent compound from three independent experiments.

T1 sequence (Q96SW2 whole entry): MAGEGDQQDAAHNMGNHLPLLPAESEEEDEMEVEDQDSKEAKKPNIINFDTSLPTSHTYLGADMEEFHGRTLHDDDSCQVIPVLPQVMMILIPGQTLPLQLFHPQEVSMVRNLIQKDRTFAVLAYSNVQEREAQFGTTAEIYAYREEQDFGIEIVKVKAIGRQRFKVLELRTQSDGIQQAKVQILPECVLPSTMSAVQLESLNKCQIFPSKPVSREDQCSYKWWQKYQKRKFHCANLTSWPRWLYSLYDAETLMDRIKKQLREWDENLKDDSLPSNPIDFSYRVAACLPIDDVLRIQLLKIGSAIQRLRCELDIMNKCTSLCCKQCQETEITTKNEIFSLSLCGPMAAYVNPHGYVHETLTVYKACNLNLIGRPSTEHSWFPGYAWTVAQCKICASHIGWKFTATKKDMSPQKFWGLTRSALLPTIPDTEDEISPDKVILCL
T1 sequence (P53671 whole entry): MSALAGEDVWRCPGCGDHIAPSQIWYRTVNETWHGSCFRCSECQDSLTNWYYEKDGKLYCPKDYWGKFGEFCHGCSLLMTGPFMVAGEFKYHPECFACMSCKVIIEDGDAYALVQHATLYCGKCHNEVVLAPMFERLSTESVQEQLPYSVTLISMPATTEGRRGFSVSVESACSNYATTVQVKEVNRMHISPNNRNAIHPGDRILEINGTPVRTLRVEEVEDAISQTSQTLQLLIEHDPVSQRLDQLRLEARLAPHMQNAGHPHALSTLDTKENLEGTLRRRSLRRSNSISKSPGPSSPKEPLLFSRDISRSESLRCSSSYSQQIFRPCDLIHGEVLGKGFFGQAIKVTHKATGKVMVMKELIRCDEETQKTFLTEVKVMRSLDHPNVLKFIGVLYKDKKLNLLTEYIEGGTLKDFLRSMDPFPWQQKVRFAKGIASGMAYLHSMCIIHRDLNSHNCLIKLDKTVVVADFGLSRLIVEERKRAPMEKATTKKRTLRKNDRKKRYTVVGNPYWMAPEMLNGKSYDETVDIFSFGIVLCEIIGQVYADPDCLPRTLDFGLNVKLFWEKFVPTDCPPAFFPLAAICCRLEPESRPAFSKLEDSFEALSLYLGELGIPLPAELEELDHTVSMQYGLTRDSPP

Cc1c(OCc2cn(CCCCC(=O)Nc3ncc(-c4cc(C(F)F)nn4-c4c(Cl)cccc4Cl)s3)nn2)cccc1N1CCC(=O)NC1=O [22b]
cytotoxic effects (HEK293T cells): no cytotoxic effects | proteins enriched by CRBN:PROTAC pull-down [1]: selectively recruited and enriched LIMK2 but not LIMK1 | metabolic stability (in words) [2]: favorable metabolic stability | parent PROTAC remaining ([2]; 60 min, 10 μM, HPLC): 85%
